Here are results for 14 compounds from patent publication US20060247320A1, “Compounds for inhibiting KSP kinesin activity” (priority 2005, published 2006).

Read-outs that look alike come from different tables or passages of the source. Bounds are passed on as bounds.

The target of the test is T1, KSP motor domain (Homo sapiens, UniProt P52732).
T1 sequence (P52732 18-359 limits assumed): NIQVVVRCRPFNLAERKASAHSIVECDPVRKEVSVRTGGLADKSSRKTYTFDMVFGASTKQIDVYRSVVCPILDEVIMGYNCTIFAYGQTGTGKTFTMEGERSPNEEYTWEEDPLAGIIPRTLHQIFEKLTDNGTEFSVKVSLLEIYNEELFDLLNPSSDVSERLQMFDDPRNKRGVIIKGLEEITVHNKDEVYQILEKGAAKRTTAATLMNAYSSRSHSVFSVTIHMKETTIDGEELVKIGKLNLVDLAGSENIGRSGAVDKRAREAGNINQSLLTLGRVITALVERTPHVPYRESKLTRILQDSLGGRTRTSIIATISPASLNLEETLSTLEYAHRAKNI
As to the kind of experiment: biochemical. To be noted: read-out: IC50.

Setting [1] is: KSP inhibitory activity, end-point assay, class symbols (Table 1).

For orientation: IC50 means the point on the concentration scale where inhibition reaches its midpoint. As for `CC(C)(C)[C@@H]1CCc2nc3sc(C(=O)N[C@H](CN)c4cccc(NC(=O)c5cncc(N)n5)c4)cc3cc2C1` [Example 260], the IC50 under setting [1] was less than 100 nM. With `CC(C)(C)[C@@H]1CCc2nc3sc(C(=O)N[C@H](CN)c4cccc(NC(=O)c5nccnc5N)c4)cc3cc2C1` [Example 261], the IC50 under setting [1] was less than 100 nM. Still for that read-out and setting: under `CC(C)(C)[C@@H]1CCc2nc3sc(C(=O)N[C@H](CN)c4cccc(NC(=O)c5ccco5)c4)cc3cc2C1` [Example 262, 6-tert-Butyl-5,6,7,8-tetrahydrothieno[2,3-b]quinoline-2-carboxylic acid (2-amino-1-{3-[(furan-2-carbonyl)amino]phenyl}ethyl)amide] stands less than 100 nM. `CC(C)(C)[C@@H]1CCc2nc3sc(C(=O)N[C@H](CN)c4cccc(NC(=O)c5ncco5)c4)cc3cc2C1` [Example 263, 6-tert-butyl-5,6,7,8-tetrahydrothieno[2,3-b]quinoline-2-carboxylic acid (2-amino-1-{3-[(oxazole-2-carbonyl)amino]phenyl}ethyl)amide]: the IC50 under setting [1] is less than 100 nM. Consider `CC(C)(C)C1CCc2nc3sc(C(=O)NC(CNCCO)c4cccc(NC(=O)c5ccco5)c4)cc3cc2C1` (stereo not drawn) [Example 264, 6-tert-butyl-5,6,7,8-tetrahydrothieno[2,3-b]quinoline-2-carboxylic acid [1-{3-[(furan-2-carbonyl)amino]phenyl}-2-(2-hydroxyethylamino)ethyl]amide], for which the IC50 under setting [1] is less than 100 nM. Same read-out and setting: to `CC(C)(C)[C@@H]1CCc2nc3sc(C(=O)N[C@H](CNCCO)c4cccc(NC(=O)c5ncco5)c4)cc3cc2C1` [Example 265, 6-tert-Butyl-5,6,7,8-tetrahydrothieno[2,3-b]quinoline-2-carboxylic acid (2-(2-hydroxy-ethylamino)-1-{3-[(oxazole-2-carbonyl)amino]phenyl}ethyl)amide] belongs less than 100 nM; to `Cc1cc(C(=O)Nc2cccc([C@@H](CNCCO)NC(=O)c3cc4cc5c(nc4s3)CC[C@@H](C(C)(C)C)C5)c2)no1` [Example 266, 6(R)-tert-butyl-5,6,7,8-tetrahydro-thieno[2,3-b]quinoline-2-carboxylic acid (2-(2-hydroxy-ethylamino)-1(S)-{3-[(5-methyl-isoxazole-3-carbonyl)-amino]-phenyl}-ethyl)-amide], less than 100 nM; to `Cn1nccc1C(=O)Nc1cccc([C@@H](CNCCO)NC(=O)c2cc3cc4c(nc3s2)CC[C@@H](C(C)(C)C)C4)c1` [Example 267], 100 to 1000 nM.

`Cn1ccc(C(=O)Nc2cccc([C@@H](CNCCO)NC(=O)c3cc4cc5c(nc4s3)CC[C@@H](C(C)(C)C)C5)c2)n1` [Example 268]: the IC50 under setting [1] is less than 100 nM. Same read-out and setting: under `CC(C)(C)[C@@H]1CCc2nc3sc(C(=O)N[C@H](CN)c4ccc(NC(=O)c5cnccn5)cc4)cc3cc2C1` [Example 269, 6(R)-tert-Butyl-5,6,7,8-tetrahydro-thieno[2,3-b]quinoline-2-carboxylic acid (2-amino-1(S)-{4-[(pyrazine-2-carbonyl)-amino]-phenyl}-ethyl)-amide] stands less than 100 nM. With `CC(C)(C)[C@@H]1CCc2nc3sc(C(=O)N[C@H](CN)c4ccc(NC(=O)c5cscn5)cc4)cc3cc2C1` [Example 270], the IC50 under setting [1] was less than 100 nM. Still for that read-out and setting: under `CC(C)(C)[C@@H]1CCc2nc3sc(C(=O)N[C@H](CN)c4ccc(NC(=O)c5cocn5)cc4)cc3cc2C1` [Example 271] stands less than 100 nM; under `Cc1ncnc(C)c1C(=O)Nc1ccc([C@@H](CN)NC(=O)c2cc3cc4c(nc3s2)CC[C@@H](C(C)(C)C)C4)cc1` [Example 272], less than 100 nM. `CC(C)(C)[C@@H]1CCc2nc3sc(C(=O)N[C@H](CN)c4ccc(NC(=O)c5ccco5)cc4)cc3cc2C1` [Example 273, 6(R)-tert-Butyl-5,6,7,8-tetrahydro-thieno[2,3-b]quinoline-2-carboxylic acid (2-amino-1(S)-{4-[(furan-2-carbonyl)-amino]-phenyl}-ethyl)-amide]: the IC50 is, setting by setting: under setting [1], less than 100 nM; (exact IC50 values, end-point assay (Table 2)) 17 nM.
